What is called IC50 is the concentration that inhibits the measured activity by half.

Sequence of PI3Kβ (P42338 whole entry, the tested form may be a part): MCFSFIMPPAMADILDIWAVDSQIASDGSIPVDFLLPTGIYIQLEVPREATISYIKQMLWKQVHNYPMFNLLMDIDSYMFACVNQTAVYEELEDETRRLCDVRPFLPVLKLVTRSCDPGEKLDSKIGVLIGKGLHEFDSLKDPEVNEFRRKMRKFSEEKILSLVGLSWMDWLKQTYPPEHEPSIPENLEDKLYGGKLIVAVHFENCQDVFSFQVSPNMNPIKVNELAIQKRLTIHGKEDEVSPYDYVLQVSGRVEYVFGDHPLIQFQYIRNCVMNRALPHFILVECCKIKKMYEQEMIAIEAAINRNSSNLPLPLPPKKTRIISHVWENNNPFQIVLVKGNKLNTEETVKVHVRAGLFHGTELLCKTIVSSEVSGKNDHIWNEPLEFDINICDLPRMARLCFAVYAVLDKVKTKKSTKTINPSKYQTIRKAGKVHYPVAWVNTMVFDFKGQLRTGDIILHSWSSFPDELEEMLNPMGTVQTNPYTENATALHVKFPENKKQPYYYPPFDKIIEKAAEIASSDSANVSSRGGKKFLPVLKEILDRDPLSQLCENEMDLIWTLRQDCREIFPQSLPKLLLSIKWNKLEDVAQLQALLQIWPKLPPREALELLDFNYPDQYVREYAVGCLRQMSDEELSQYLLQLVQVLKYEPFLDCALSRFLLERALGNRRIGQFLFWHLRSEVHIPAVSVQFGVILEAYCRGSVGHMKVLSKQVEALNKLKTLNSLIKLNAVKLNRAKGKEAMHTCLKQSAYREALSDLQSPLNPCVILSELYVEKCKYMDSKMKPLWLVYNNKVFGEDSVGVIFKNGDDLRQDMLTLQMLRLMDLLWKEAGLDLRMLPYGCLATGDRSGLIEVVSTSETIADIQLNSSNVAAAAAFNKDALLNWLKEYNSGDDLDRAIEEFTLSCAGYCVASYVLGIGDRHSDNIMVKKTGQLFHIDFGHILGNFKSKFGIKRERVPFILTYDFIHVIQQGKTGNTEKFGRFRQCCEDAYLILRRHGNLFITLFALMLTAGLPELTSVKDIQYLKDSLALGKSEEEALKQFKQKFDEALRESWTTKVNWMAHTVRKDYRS
Sequence of PI3Kβ (P27986 whole entry partner, the tested form may be a part): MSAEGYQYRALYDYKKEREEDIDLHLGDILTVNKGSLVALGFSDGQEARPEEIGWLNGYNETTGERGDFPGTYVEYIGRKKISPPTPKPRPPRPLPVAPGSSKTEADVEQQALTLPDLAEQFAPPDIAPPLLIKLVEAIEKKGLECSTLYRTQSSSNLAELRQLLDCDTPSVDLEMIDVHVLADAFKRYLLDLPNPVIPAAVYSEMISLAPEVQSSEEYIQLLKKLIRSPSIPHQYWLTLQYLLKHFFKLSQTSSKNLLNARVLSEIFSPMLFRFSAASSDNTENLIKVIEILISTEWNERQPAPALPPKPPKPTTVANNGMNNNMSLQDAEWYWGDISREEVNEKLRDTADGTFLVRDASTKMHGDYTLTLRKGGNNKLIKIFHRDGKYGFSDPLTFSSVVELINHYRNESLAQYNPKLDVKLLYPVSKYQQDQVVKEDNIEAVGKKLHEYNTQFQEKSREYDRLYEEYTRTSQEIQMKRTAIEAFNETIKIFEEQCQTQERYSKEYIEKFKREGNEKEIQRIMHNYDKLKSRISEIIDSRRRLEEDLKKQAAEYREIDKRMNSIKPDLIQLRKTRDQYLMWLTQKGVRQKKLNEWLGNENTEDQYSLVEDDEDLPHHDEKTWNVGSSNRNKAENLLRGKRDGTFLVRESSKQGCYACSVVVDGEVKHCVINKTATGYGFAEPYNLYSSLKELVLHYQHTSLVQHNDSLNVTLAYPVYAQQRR

The assay concerns the target PI3Kβ (Homo sapiens (Human), UniProt P42338). Kind of assay: TR-FRET enzymatic activity assay, PI3Kβ. It counts as biochemical. The following applies: 2× Km ATP, 2 μM PIP2, 30 minutes at 25° C., read-out: IC50-PIP-Beta. A digest of the protocol: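 Purified recombinant heterodimeric PI3Kβ; PIP3 formation read by TR-FRET as competition with fluorescent tracer for GRP-1 PH domain binding. Compounds incubated 30 min at 25 °C.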
For `Cc1nc2c(-c3nnc[nH]3)cc(-c3ccncc3)cc2n1-c1ccnc2c(Cl)ccc(F)c12` [Example 37, 8-chloro-5-fluoro-4-[2-methyl-6-pyridin-4-yl-4-(4H-1,2,4-triazol-3-yl)benzimidazol-1-yl]quinoline], the IC50 was 4 nM.
The same measure for `Cc1nc2c(-c3nnc[nH]3)cc(-c3ccncc3)cc2n1-c1ccnc2c(Cl)cccc12` [Example 38, 8-chloro-4-[2-methyl-6-pyridin-4-yl-4-(4H-1,2,4-triazol-3-yl)benzimidazol-1-yl]quinoline]: 7 nM; for `Cc1nc2c(-c3nnc[nH]3)cc(-c3ccncc3F)cc2n1-c1ccnc2c(Cl)cccc12` [Example 39, 8-chloro-4-[6-(3-fluoropyridin-4-yl)-2-methyl-4-(4H-1,2,4-triazol-3-yl)benzimidazol-1-yl]quinoline]: 5 nM; for `Cc1nc2c(-c3nnc[nH]3)cc(-c3cc(F)ncc3F)cc2n1-c1ccnc2c(F)ccc(F)c12` [Example 41, 4-[6-(2,5-difluoropyridin-4-yl)-2-methyl-4-(4H-1,2,4-triazol-3-yl)benzimidazol-1-yl]-5,8-difluoroquinoline]: 27 nM.
As for `Cc1nc2c(-c3nnc[nH]3)cc(-c3ccnc(F)c3F)cc2n1-c1ccnc2c(F)ccc(F)c12` [Example 42, 4-[6-(2,3-difluoropyridin-4-yl)-2-methyl-4-(4H-1,2,4-triazol-3-yl)benzimidazol-1-yl]-5,8-difluoroquinoline], the figure is 10 nM; as for `Cc1nc2c(-c3nnc[nH]3)cc(-c3ccnc(C(F)F)c3)cc2n1-c1ccnc2c(F)ccc(F)c12` [Example 43, 4-(6-(2-(difluoromethyl)pyridin-4-yl)-2-methyl-4-(4H-1,2,4-triazol-3-yl)-1H-benzo[d]imidazol-1-yl)-5,8-difluoroquinoline], 30 nM.
The same measure for `Cc1nc2c(-c3nnc[nH]3)cc(-c3ccnc(C#N)c3)cc2n1-c1ccnc2c(F)ccc(F)c12` [Example 44, 4-[3-(5,8-difluoroquinolin-4-yl)-2-methyl-7-(4H-1,2,4-triazol-3-yl)benzimidazol-5-yl]pyridine-2-carbonitrile]: 4 nM; for `Cc1cc(-c2cc(-c3nnc[nH]3)c3nc(C)n(-c4ccnc5c(F)ccc(F)c45)c3c2)ccn1` [Example 45, 5,8-difluoro-4-[2-methyl-6-(2-methylpyridin-4-yl)-4-(4H-1,2,4-triazol-3-yl)benzimidazol-1-yl]quinoline]: 8 nM; for `Cc1c(-c2cc(-c3nnc[nH]3)c3nc(C)n(-c4ccnc5c(F)ccc(F)c45)c3c2)ccnc1F` [Example 46, 5,8-difluoro-4-[6-(2-fluoro-3-methylpyridin-4-yl)-2-methyl-4-(4H-1,2,4-triazol-3-yl)benzimidazol-1-yl]quinoline]: 1100 nM.
On to `Fc1nccc(-c2cc(-c3nnc[nH]3)c3ncn(-c4ccnc5c(F)ccc(F)c45)c3c2)c1F` [Example 47, 4-[6-(2,3-difluoropyridin-4-yl)-4-(4H-1,2,4-triazol-3-yl)benzimidazol-1-yl]-5,8-difluoroquinoline], for which the IC50 came out at 46 nM.
The same measure for `Cc1nc2c(-c3nnc[nH]3)cc(-c3ccnc(N)c3)cc2n1-c1ccnc2c(F)ccc(F)c12` [Example 48, 4-[3-(5,8-difluoroquinolin-4-yl)-2-methyl-7-(4H-1,2,4-triazol-3-yl)benzimidazol-5-yl]pyridin-2-amine]: 10 nM; for `Cc1nnc(-c2cc(-c3ccnc(N)c3)cc3c2nc(C)n3-c2ccnc3c(Cl)cccc23)[nH]1` [Example 49, 4-[3-(8-chloroquinolin-4-yl)-2-methyl-7-(5-methyl-4H-1,2,4-triazol-3-yl)benzimidazol-5-yl]pyridin-2-amine]: 170 nM; for `Cc1nnc(-c2cc(-c3ccnc(N)c3)cc3c2nc(C)n3-c2ccnc3c(Cl)ccc(F)c23)[nH]1` [Example 50, 4-[3-(8-chloro-5-fluoroquinolin-4-yl)-2-methyl-7-(5-methyl-4H-1,2,4-triazol-3-yl)benzimidazol-5-yl]pyridin-2-amine]: 17 nM.
The same measure for `Cc1nc2c(-c3nnc[nH]3)cc(-c3ccnc(N)c3)cc2n1-c1ccnc2c(Cl)ccc(F)c12` [Example 51, 4-[3-(8-chloro-5-fluoroquinolin-4-yl)-2-methyl-7-(4H-1,2,4-triazol-3-yl)benzimidazol-5-yl]pyridin-2-amine]: 3 nM; for `CCc1nc2c(-c3nnc[nH]3)cc(-c3ccnc(N)c3)cc2n1-c1ccnc2cc(F)ccc12` [Example 52, 4-[2-ethyl-3-(7-fluoroquinolin-4-yl)-7-(4H-1,2,4-triazol-3-yl)benzimidazol-5-yl]pyridin-2-amine]: 330 nM.
As for `Cc1nc2c(-c3nnc[nH]3)cc(-c3ccnc(N)c3)cc2n1-c1ccnc2cc(F)ccc12` [Example 53, 4-[3-(7-fluoroquinolin-4-yl)-2-methyl-7-(4H-1,2,4-triazol-3-yl)benzimidazol-5-yl]pyridin-2-amine], the figure is 180 nM.
On to `CCc1nc2c(-c3nnc[nH]3)cc(-c3ccnc(N)c3)cc2n1-c1ccnc2cccc(F)c12` [Example 54, 4-[2-ethyl-3-(5-fluoroquinolin-4-yl)-7-(4H-1,2,4-triazol-3-yl)benzimidazol-5-yl]pyridin-2-amine], for which the half-inhibitory concentration (IC50) is 36 nM.
As for `Cc1nc2c(-c3nnc[nH]3)cc(-c3ccnc(N)c3)cc2n1-c1ccnc2cccc(F)c12` [Example 55, 4-[3-(5-fluoroquinolin-4-yl)-2-methyl-7-(4H-1,2,4-triazol-3-yl)benzimidazol-5-yl]pyridin-2-amine], the figure is 19 nM; as for `Cc1nc2c(-c3nnc[nH]3)cc(-c3ccnc(N)n3)cc2n1-c1ccnc2c(Cl)cccc12` [Example 56, 4-[3-(8-chloroquinolin-4-yl)-2-methyl-7-(4H-1,2,4-triazol-3-yl)benzimidazol-5-yl]pyrimidin-2-amine], 9 nM.
As for `Cc1nc2c(-c3nnc[nH]3)cc(-c3cc(N)nc(N)n3)cc2n1-c1ccnc2c(Cl)cccc12` [Example 57, 6-[3-(8-chloroquinolin-4-yl)-2-methyl-7-(4H-1,2,4-triazol-3-yl)benzimidazol-5-yl]pyrimidine-2,4-diamine], the figure is 290 nM; as for `Cc1nc2c(-c3nnc[nH]3)cc(-c3ccnc(N)c3)cc2n1-c1ccnc2c(Cl)cccc12` [Example 58, 4-(1-(8-chloroquinolin-4-yl)-2-methyl-4-(4H-1,2,4-triazol-3-yl)-1H-benzo[d]imidazol-6-yl)pyridin-2-amine], 10 nM.
As for `Cc1nc2c(-c3nnc[nH]3)cc(-c3cc(N)ncn3)cc2n1-c1ccnc2c(Cl)cccc12` [Example 59, 6-[3-(8-chloroquinolin-4-yl)-2-methyl-7-(4H-1,2,4-triazol-3-yl)benzimidazol-5-yl]pyrimidin-4-amine], the figure is 270 nM; as for `Nc1cc(-c2cc(-c3nnc[nH]3)c3nc(C4CC4)n(-c4ccnc5c(F)cccc45)c3c2)ccn1` [Example 60, 4-[2-cyclopropyl-3-(8-fluoroquinolin-4-yl)-7-(4H-1,2,4-triazol-3-yl)benzimidazol-5-yl]pyridin-2-amine], 420 nM.
For `Cc1nc2c(-c3nnc[nH]3)cc(-c3ccnc(N)c3)cc2n1-c1ccnc2c(F)cccc12` [Example 61, 4-[3-(8-fluoroquinolin-4-yl)-2-methyl-7-(4H-1,2,4-triazol-3-yl)benzimidazol-5-yl]pyridin-2-amine], the IC50 was found to be 35 nM.
Regarding `Nc1cc(-c2cc(-c3nnc[nH]3)c3nc(C4CC4)n(-c4ccnc5c(Cl)ccc(F)c45)c3c2)ccn1` [Example 62, 4-[3-(8-chloro-5-fluoroquinolin-4-yl)-2-cyclopropyl-7-(4H-1,2,4-triazol-3-yl)benzimidazol-5-yl]pyridin-2-amine], the half-inhibitory concentration (IC50) came out at 8 nM.
The same measure for `CCCc1nc2c(-c3nnc[nH]3)cc(-c3ccnc(N)c3)cc2n1-c1ccnc2c(Cl)ccc(F)c12` [Example 63, 4-[3-(8-chloro-5-fluoroquinolin-4-yl)-2-propyl-7-(4H-1,2,4-triazol-3-yl)benzimidazol-5-yl]pyridin-2-amine]: 7 nM.
For `Cc1nnc(-c2cc(-c3ccnc(N)c3)cc3c2nc(C2CC2)n3-c2ccnc3c(Cl)ccc(F)c23)[nH]1` [Example 64, 4-[3-(8-chloro-5-fluoroquinolin-4-yl)-2-cyclopropyl-7-(5-methyl-4H-1,2,4-triazol-3-yl)benzimidazol-5-yl]pyridin-2-amine], the half-maximal inhibitory concentration (IC50) was 200 nM.
As for `CCCc1nc2c(-c3nnc(C)[nH]3)cc(-c3ccnc(N)c3)cc2n1-c1ccnc2c(Cl)ccc(F)c12` [Example 65, 4-[3-(8-chloro-5-fluoroquinolin-4-yl)-7-(5-methyl-4H-1,2,4-triazol-3-yl)-2-propylbenzimidazol-5-yl]pyridin-2-amine], the figure is 16 nM; as for `Cc1nnc(-c2cc(-c3ccnc(N)c3)cc3c2nc(C(C)C)n3-c2ccnc3c(Cl)ccc(F)c23)[nH]1` [Example 66, 4-[3-(8-chloro-5-fluoroquinolin-4-yl)-7-(5-methyl-4H-1,2,4-triazol-3-yl)-2-propan-2-ylbenzimidazol-5-yl]pyridin-2-amine], 140 nM.
Take `CC(C)c1nc2c(-c3nnc[nH]3)cc(-c3ccnc(N)c3)cc2n1-c1ccnc2c(Cl)ccc(F)c12` [Example 67, 4-[3-(8-chloro-5-fluoroquinolin-4-yl)-2-propan-2-yl-7-(4H-1,2,4-triazol-3-yl)benzimidazol-5-yl]pyridin-2-amine]: the IC50 was found to be 8 nM.
`Nc1cc(-c2cc(-c3nnc[nH]3)c3nc(C4COC4)n(-c4ccnc5c(Cl)ccc(F)c45)c3c2)ccn1` [Example 68, 4-[3-(8-chloro-5-fluoroquinolin-4-yl)-2-(oxetan-3-yl)-7-(4H-1,2,4-triazol-3-yl)benzimidazol-5-yl]pyridin-2-amine]: the IC50 was 35 nM.
On to `Nc1cc(-c2cc(-c3nnc[nH]3)c3nc(C4CC4)n(-c4ccnc5c(F)ccc(F)c45)c3c2)ccn1` [Example 69, 4-[2-cyclopropyl-3-(5,8-difluoroquinolin-4-yl)-7-(4H-1,2,4-triazol-3-yl)benzimidazol-5-yl]pyridin-2-amine], for which the 50% inhibitory concentration (IC50) is 47 nM.
